In US7132234B2, “Methods and compositions for the identification of anti-poxvirus agents” (priority 2003, dated 2006):
Where a SMILES comes first, the peptide text is derived from it. The star is where a group is joined. Cbz = O=C(OCc1ccccc1)*

Tested on: 26S proteasome-mediated degradation of SP28
Format: cell-based

CC(C)C[C@@H](C=O)NC(=O)[C@H](CC(C)C)NC(=O)[C@H](CC(C)C)NC(=O)OCc1ccccc1 [MG132] (Cbz-Leu-Leu-Leu-aldehyde)
Stability of SP28 C173A/H199A mutant in cells: also stabilized by MG132, although to a much lesser extent | Stability of wild-type SP28 in cells: remarkably enhanced stability of wild-type SP28
